Values after ≈ are worked out from the molar mass of the structure shown. Values joined by “and” are separate entries in the source; they are usually repeats but may differ in a detail not shown here. Identical values can stand only once. Like-named read-outs stand apart in the source and are kept apart here. Starred links: 1 amine or outer side, 2 acyl side, 3 side chain; linkers in the order of their positions; H or OH if unused. Non-standard residues stand in square brackets, D forms with d. Residues, ends and D or L forms follow the SMILES beside them. *: point of attachment. Trp(1-(1,1-Me2-allyl)) = C=CC(C)(C)n1cc(C[C@H](N)C(=O)O)c2ccccc21; Phe(βR-OMe) = CO[C@H](c1ccccc1)[C@H](N)C(=O)O; X4 = C/C=C/[C@@H](C)[C@H](N[*:1])C(=O)[*:2]; X2 = CN([C@@H](CCCO)C(=O)[*:2])[*:1]; NMeE = CN[C@@H](CCC(=O)O)C(=O)O; NMeL = CN[C@@H](CC(C)C)C(=O)O; NMeK = CN[C@@H](CCCCN)C(=O)O; tBu = CC(C)(C)*; NHPr = CCCN*
Key:
ClpC1NTD = molecular target: T1, ClpC1NTD (Mycolicibacterium smegmatis, UniProt A0R574); experiment: Binding affinity by isothermal titration calorimetry (ITC); conditions: ITC at 25 °C, 50 mM Tris pH 7.5, 100 mM NaCl, 2% DMSO, single binding site model
T1 construct: M. smegmatis clpC1 NTD (1-148) was cloned in pET21a; hexahistidine (C); made in house; host or cells: E. coli BL21 (DE3) or Rosetta
T1 sequence (A0R574 1-148): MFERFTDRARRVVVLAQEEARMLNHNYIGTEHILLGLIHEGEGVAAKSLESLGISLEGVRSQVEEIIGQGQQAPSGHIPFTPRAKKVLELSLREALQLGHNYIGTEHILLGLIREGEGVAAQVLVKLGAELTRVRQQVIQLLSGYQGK
Description: Binding affinities were determined using isothermal titration calorimetry (ITC).
ITC experiments were carried out using MicroCal PEAQ-ITC (Malvern) at 25 °C, whilst stirring at 750 rpm in a buffer containing 50 mM Tris pH 7.5, 100 mM NaCl. Each titration consisted of 19 injections with intervals of 120 s (the first injection of 0.4 µL followed by 18 injections of 2 µL). DMSO concentration was matched between cell and syringe to 2%. The data were fitted to a single binding site model with a fitted offset subtraction in the MicroCal PEAQ-ITC Analysis Software. Each titration was repeated at least two times. Titrations were performed with ligand in the syringe and protein in the cell. A control titration of ligand into buffer was performed in order to account for the heat of dilution. Titrations involving compounds with poorer solubility of the compound in buffer were performed with ligand in the cell and protein in the syringe. The following table 2 provides the results of the determination. Table 2: results for dissociation constant (KD) and Minimal Inhibitory Concentration (MIC)

mycobacterial cell = experiment: Minimal Inhibitory Concentration (MIC); format: cell-based
[1] = amide bond, 21-membered ring
[2] = from H-Val-MeLeu-Ile-Trp(Boc)-MeGlu(tBu)-Ala-Phe-OH; amide bond; 21-membered ring; T3P/DIEA; DCM; 0.75 mM; 25.0 °C
[3] = the molecule shown is the open-chain precursor
[4] = the molecule shown is the open-chain precursor, DIC/HOAt/Et3N, DCM, 0.75 mM, 25.0 °C

## CC[C@H](C)[C@@H]1NC(=O)[C@H](CC(C)C)N(C)C(=O)[C@H](C(C)C)NC(=O)[C@H](Cc2ccccc2)NC(=O)[C@H](C)NC(=O)[C@H](CCC(=O)O)N(C)C(=O)[C@H](Cc2c[nH]c3ccccc23)NC1=O [CycloA_D2] (cyclo(AFV[NMeL]IW[NMeE]))
ClpC1NTD
  Kd: 225 µM

## CC[C@H](C)[C@@H]1NC(=O)[C@H](CC(C)C)N(C)C(=O)[C@H](C(C)C)NC(=O)[C@H](Cc2ccccc2)NC(=O)[C@H](C)NC(=O)[C@H](CCCO)N(C)C(=O)[C@H](Cc2ccc(OC(C)(C)C)cc2)NC1=O [CycloA_D5a] (cyclo(V[NMeL]IY(tBu)[X2]AF))
ClpC1NTD
  Kd: 128 µM
Mycobacterial cell
  MIC: > 30 µM

## CC[C@H](C)[C@@H]1NC(=O)[C@H](CC(C)C)N(C)C(=O)[C@H](C(C)C)NC(=O)[C@H](Cc2ccccc2)NC(=O)[C@H](C)NC(=O)[C@H](CCCO)N(C)C(=O)[C@H](Cc2ccc(O)cc2)NC1=O [CycloA_D5b] (cyclo(V[NMeL]IY[X2]AF))
ClpC1NTD
  Kd: 326 µM

## CC[C@H](C)[C@@H]1NC(=O)[C@H](CC(C)C)N(C)C(=O)[C@H](C(C)C)NC(=O)[C@H](Cc2ccccc2)NC(=O)[C@H](C)NC(=O)[C@H](CCCCN)N(C)C(=O)[C@H](Cc2c[nH]c3ccccc23)NC1=O [CycloA_D6] (cyclo(AFV[NMeL]IW[NMeK]))
ClpC1NTD
  Kd: 14.9 µM
Mycobacterial cell
  MIC: 24 µM (≈ 21.3 µg/mL)

## CCCNC(=O)CC[C@H]1C(=O)N[C@@H](C)C(=O)N[C@@H](Cc2ccccc2)C(=O)N[C@@H](C(C)C)C(=O)N(C)[C@@H](CC(C)C)C(=O)N[C@@H]([C@@H](C)CC)C(=O)N[C@@H](Cc2c[nH]c3ccccc23)C(=O)N1C [CycloA_D7] (cyclo(AFV[NMeL]IW[NMeE](NHPr)))
ClpC1NTD
  Kd: 26.8 µM
Mycobacterial cell
  MIC: > 120 µM

## CC[C@H](C)[C@@H]1NC(=O)[C@H](CC(C)C)N(C)C(=O)[C@H](C(C)C)NC(=O)[C@H]([C@H](OC)c2ccccc2)NC(=O)[C@H](C)NC(=O)[C@H](CCCCN)N(C)C(=O)[C@H](Cc2c[nH]c3ccccc23)NC1=O [CycloA_D9] (cyclo(W[NMeK]A[Phe(βR-OMe)]V[NMeL]I))
ClpC1NTD
  Kd: 2.8 µM
Mycobacterial cell
  MIC: 12 µM (≈ 11 µg/mL)

## C=CC(C)(C)n1cc(C[C@@H]2NC(=O)[C@H]([C@@H](C)CC)NC(=O)[C@H](CC(C)C)N(C)C(=O)[C@H](C(C)C)NC(=O)[C@H](Cc3ccccc3)NC(=O)[C@H](C)NC(=O)[C@H](CCCCN)N(C)C2=O)c2ccccc21 [CycloA_D10] (cyclo(AFV[NMeL]I[Trp(1-(1,1-Me2-allyl))][NMeK]))
Mycobacterial cell
  MIC: 40 µM (≈ 38.2 µg/mL)

## C=CC(C)(C)n1cc(C[C@@H]2NC(=O)[C@H]([C@@H](C)CC)NC(=O)[C@H](CC(C)C)N(C)C(=O)[C@H](C(C)C)NC(=O)[C@H]([C@H](OC)c3ccccc3)NC(=O)[C@H](C)NC(=O)[C@H](CCCCN)N(C)C2=O)c2ccccc21 [CycloA_D11] (cyclo(A[Phe(βR-OMe)]V[NMeL]I[Trp(1-(1,1-Me2-allyl))][NMeK]))
Mycobacterial cell
  MIC: 20 µM (≈ 19.7 µg/mL)

## CC[C@H](C)[C@@H]1NC(=O)[C@H](CCC(=O)O)N(C)C(=O)[C@H](C(C)C)NC(=O)[C@H]([C@H](OC)c2ccccc2)NC(=O)[C@H](C)NC(=O)[C@H](CCCCN)N(C)C(=O)[C@H](Cc2c[nH]c3ccccc23)NC1=O [CycloA_D13] (cyclo(A[Phe(βR-OMe)]V[NMeE]IW[NMeK]))
Mycobacterial cell
  MIC: >200 µM

## C=CC(C)(C)n1cc(C[C@@H]2NC(=O)[C@H]([C@H](C)/C=C/C)NC(=O)[C@H](CC(C)C)N(C)C(=O)[C@H](C(C)C)NC(=O)[C@H]([C@H](OC)c3ccccc3)NC(=O)[C@H](C)NC(=O)[C@H](CCCCN)N(C)C2=O)c2ccccc21 [CycloA_D17] (cyclo(A[Phe(βR-OMe)]V[NMeL][X4][Trp(1-(1,1-Me2-allyl))][NMeK]))
Mycobacterial cell
  MIC: 20 µM (≈ 19.9 µg/mL)

## CC[C@H](C)[C@@H]1NC(=O)[C@H](CC(C)C)N(C)C(=O)[C@H](C(C)C)NC(=O)[C@H](Cc2ccccc2)NC(=O)[C@H](C)NC(=O)[C@H](CCCO)N(C)C(=O)[C@H](Cc2c[nH]c3ccccc23)NC1=O [CylcoA_D4] (cyclo(AFV[NMeL]IW[X2]))
ClpC1NTD
  Kd: 107 µM
Mycobacterial cell
  MIC: > 30 µM

## CC[C@H](C)[C@@H]1NC(=O)[C@H](CCC(=O)OC(C)(C)C)N(C)C(=O)[C@H](C(C)C)NC(=O)[C@H]([C@H](OC)c2ccccc2)NC(=O)[C@H](C)NC(=O)[C@H](CCCCNC(=O)OC(C)(C)C)N(C)C(=O)[C@H](Cc2cn(C(=O)OC(C)(C)C)c3ccccc23)NC1=O [H-Val-MeGlu(tBu)-Ile-Trp(Boc)-MeLys(Boc)-Ala-Phe(3R-MeO)-OH]
[1]; from H-Val-MeGlu(tBu)-Ile-Trp(Boc)-MeLys(Boc)-Ala-Phe(3R-MeO)-OH, T3P/DIEA, DCM, 0.75 mM, 25.0 °C
  ring closure, crude yield: 52%

## CC[C@H](C)[C@@H]1NC(=O)[C@H](CC(C)C)N(C)C(=O)[C@H](C(C)C)NC(=O)[C@H](Cc2ccccc2)NC(=O)[C@H](C)NC(=O)[C@H](CCC(=O)OC(C)(C)C)N(C)C(=O)[C@H](Cc2cn(C(=O)OC(C)(C)C)c3ccccc23)NC1=O [H-Val-MeLeu-Ile-Trp(Boc)-MeGlu(tBu)-Ala-Phe-OH]
[2]
  ring closure, yield after HPLC: 39%
[1]; from H-Val-MeLeu-Ile-Trp(Boc)-MeGlu(tBu)-Ala-Phe-OH, T3P/DIEA, DCM, 0.75 mM, 25.0 °C
  ring closure, crude yield: 52% and 54%

## CC[C@H](C)[C@@H]1NC(=O)[C@H](CC(C)C)N(C)C(=O)[C@H](C(C)C)NC(=O)[C@H](Cc2ccccc2)NC(=O)[C@H](C)NC(=O)[C@H](CCCO[Si](C)(C)C(C)(C)C)N(C)C(=O)[C@H](Cc2cn(C(=O)OC(C)(C)C)c3ccccc23)NC1=O [H-Val-MeLeu-Ile-Trp(Boc)-MeHnv(TBDMS)-Ala-Phe-OH]
[1]; from H-Val-MeLeu-Ile-Trp(Boc)-MeHnv(TBDMS)-Ala-Phe-OH, T3P/DIEA, DCM, 0.75 mM, 25.0 °C
  ring closure, crude yield: 94%

## CC[C@H](C)[C@@H]1NC(=O)[C@H](CC(C)C)N(C)C(=O)[C@H](C(C)C)NC(=O)[C@H]([C@H](OC)c2ccccc2)NC(=O)[C@H](C)NC(=O)[C@H](CCCCNC(=O)OC(C)(C)C)N(C)C(=O)[C@H](Cc2cn(C(=O)OC(C)(C)C)c3ccccc23)NC1=O [H-Val-MeLeu-Ile-Trp(Boc)-MeLys(Boc)-Ala-Phe(3R-MeO)-OH]
[1]; from H-Val-MeLeu-Ile-Trp(Boc)-MeLys(Boc)-Ala-Phe(3R-MeO)-OH, T3P/DIEA, DCM, 0.75 mM, 25.0 °C
  ring closure, crude yield: 88%

## CC[C@H](C)[C@@H]1NC(=O)[C@H](CC(C)C)N(C)C(=O)[C@H](C(C)C)NC(=O)[C@H](Cc2ccccc2)NC(=O)[C@H](C)NC(=O)[C@H](CCCCNC(=O)OC(C)(C)C)N(C)C(=O)[C@H](Cc2cn(C(=O)OC(C)(C)C)c3ccccc23)NC1=O [H-Val-MeLeu-Ile-Trp(Boc)-MeLys(Boc)-Ala-Phe-OH]
[1]; from H-Val-MeLeu-Ile-Trp(Boc)-MeLys(Boc)-Ala-Phe-OH, T3P/DIEA, DCM, 0.75 mM, 25.0 °C
  ring closure, crude yield: 75%

## CC[C@H](C)[C@@H]1NC(=O)[C@H](CC(C)C)N(C)C(=O)[C@H](C(C)C)NC(=O)[C@H](Cc2ccccc2)NC(=O)[C@H](C)NC(=O)[C@H](CCCNC(=O)OC(C)(C)C)N(C)C(=O)[C@H](Cc2cn(C(=O)OC(C)(C)C)c3ccccc23)NC1=O [H-Val-MeLeu-Ile-Trp(Boc)-MeOrn(Boc)-Ala-Phe-OH]
[1]; from H-Val-MeLeu-Ile-Trp(Boc)-MeOrn(Boc)-Ala-Phe-OH, T3P/DIEA, DCM, 0.75 mM, 25.0 °C
  ring closure, crude yield: 98%

## CC[C@H](C)[C@@H]1NC(=O)[C@H](CC(C)C)N(C)C(=O)[C@H](C(C)C)NC(=O)[C@H](Cc2ccccc2)NC(=O)[C@H](C)NC(=O)[C@H](CCC(=O)OC)N(C)C(=O)[C@H](Cc2ccc(OC(C)(C)C)cc2)NC1=O [H-Val-MeLeu-Ile-Tyr(tBu)-MeGlu(Me)-Ala-Phe-OH]
[1]; from H-Val-MeLeu-Ile-Tyr(tBu)-MeGlu(Me)-Ala-Phe-OH, T3P/DIEA, DCM, 0.75 mM, 25.0 °C
  ring closure, crude yield: 72%

## H-Glu(TOTA-PMX-methylester)-Phe(3R-MeO)-Val-MeLeu-Ile-Trp(Boc)-MeLys(Boc)-OH
[1]; [3]
  ring closure, crude yield: 77% and 58%

## H-Glu(TOTA-TMP)-Phe(3R-MeO)-Val-MeLeu-Ile-Trp(Boc)-MeLys(Boc)-OH?
[1]; [3]
  ring closure, crude yield: 65%

## H-Val-MeLeu-Ile-Trp(Boc)-MeLys(Boc)-Glu(TOTA-(+)JQ1)-Phe(3R-MeO)-OH
[1]; [3]
  ring closure, crude yield: 64%

## H-Val-MeLeu-Ile-Trp(Boc)-MeLys(Boc)-Glu(TOTA-(-)JQ1)-Phe(3R-MeO)-OH
[1]; [3]
  ring closure, crude yield: 70%

## H-Val-MeLeu-Ile-Trp(Boc)-MeLys(Boc)-Glu(TOTA-Biotin)-Phe(3R-MeO)-OH
[1]; [4]
  ring closure, crude yield: 63%

## H-Val-MeLeu-Ile-Trp(Boc)-MeLys(Boc)-Glu(TOTA-SLF')-Phe(3R-MeO)-OH
[1]; [3]
  ring closure, crude yield: 54%

## H-Val-MeLeu-Ile-Trp(Boc)-MeLys(Boc)-Lys(Biotin)-Phe(3R-MeO)-OH
[1]; [4]
  ring closure, crude yield: 72%

## H-Val-MeLeu-Ile-Trp(prenyl)-MeLys(Boc)-Ala-Phe(3R-MeO)-OH
[1]; [4]
  ring closure, crude yield: 65%

## H-Val-MeLeu-Ile-Trp(prenyl)-MeLys(Boc)-Ala-Phe-OH
[1]; [4]
  ring closure, crude yield: 78%

## H-Val-MeLeu-dehydroisonorleucine-Trp(prenyl)-MeLys(Boc)-Ala-Phe(3R-MeO)-OH
[1]; [4]
  ring closure, crude yield: 81%

— patent EP4089103A1, “CLPCP PROTEASE-BINDING CYCLIC HEPTAPEPTIDES” (priority 2021, dated 2022)
